By pKd is commonly meant the negative decadic logarithm of the Kd, by convention in mol/L. In general, pKi refers to −log10 of the Ki, conventionally taken in molar units. Low values mean a large Ki, high ones a small Ki.

The structures appear in SMILES notation. pKd, pKi: −log10 of the molar value.

Twelve compounds from patent US12116364B2, “Heteroaryl compounds and uses thereof” (APRINOIA THERAPEUTICS INC., priority 2018, dated 2024) can be followed below.

The target in assay [1] is recombinant tau proteins (human Tau, heparin-fiberized) (Homo sapiens, UniProt P10636). Nature of the assay: Fluorescence quantitative Tau binding assay in vitro. To be noted: 0.04 uM fiberized recombinant tau, 30 mM Tris pH 7.5, 1 h, fluorometric saturation curve. The method, then: Expression and Purification of Human Tau Protein
• pET41a-Tau wild type • One Shot® BL21(DE3) Chemically Competent E. coli (Invitrogen, C600003) • Kanamycin sulfate (Sangon Biotech, A506636) • IPTG (Sangon Biotech, A100487) • Pipes buffer (100 mM Pipes, pH6.8, 1 mM EGTA, 1 mM MgSO4) • Hepes buffer (25 mM Hepes, pH7.2, 0.1 mM EDTA, 0.5 mM DTT, 100 mM NaCl) • Q-Sepharose Fast Flow column (GE Healthcare, 17-0510-01) • SP-Sepharose Fast Flow column (GE Healthcare, 17-0729-01) Procedures: Protein Expression: • Step 1: Transform 1 uL expression plasmid pET41a-tau wt into one One Shot® BL21(DE3) Chemically Competent E. coli, on ice 30 min. • Step 2: 42° C. heat shock 90 second and on ice 2 min, 37° C. recovery for 30 min, Plate small amount on LB(Kan+) agar plate incubate overnight at 37° C. • Step 3: Pick and resuspend a single colony in 200 mL liquid culture with 50 ug/mL Kanamycin to produce a starter culture. Inoculate starter culture and shake 200 rpm overnight at 37° C. • Step 4: Add 100× dilution Starter into fresh culture medium (Kan+) shake 200 rpm at 37° C. until OD600=0.8. • Step 5: Add IPTG (final conc. 1 mM) and express protein for 3 hr. • Step 6: Collect cell pellet and store at −80° C. for purification. Protein Purification: • Step 1: Cell pellet was resuspended in Pipes buffer. • Step 2: Sonication and centrifugation (15,000 rpm, 15 min at 4° C. • Step 3: The supernatant was placed in a boiling water bath for 20 min and subsequently centrifuged. The heat-stable proteins in the supernatant were loaded onto a Q-Sepharose Fast Flow column (20 mL) • Step 4: The flow through containing tau was loaded onto SP-Sepharose Fast Flow column (10 mL), eluted with Pipes buffer containing 0.2M NaCl. • Step 6: Fractions containing tau were pooled, concentrated and dialyzed against Hepes buffer, stored at −80° C. • Step 7: Reload SP-Flow through into Q-Sepharose Fast Flow column (20 mL) and SP-Sepharose Fast Flow column (10 mL) again, eluted with Pipes buffer containing 0.2M NaCl. • Step 8: Fractions containing tau were pooled, concentrated and dialyzed against Hepes buffer, stored at −80° C. Repeat step 6-7 twice, Collect all above all elution product and concentrated. Biological Assays Fluorescence Quantitative Tau Binding Assay In Vitro
2 uM of recombinant tau proteins and 15 uM of heparin were fiberized in 30 mM Tris (pH 7.5) buffer by overnight incubation at 37° C. 0.04 uM of recombinant tau proteins which was diluted in 30 mM Tris buffer (pH 7.5) was then reacted with test compounds (containing 1% DMSO) for 1 h. Regarding the fluorometric data, the binding saturation curve was created and the parameter estimation method was conducted using Prism software (GraphPad). Kd values were determined for each of test compounds. Table A lists Kd values of exemplary test compounds.

In assay [2] the target is [11C]PBB3 binding sites (tau aggregates) in temporal cortex homogenates of an Alzheimer's disease patient (Homo sapiens, UniProt P10636). Nature of the assay: Fluorescence competitive binding assay in vitro ([11C]PBB3 displacement in Alzheimer's disease temporal cortex homogenates). To be noted: 5 nM [11C]PBB3, AD temporal cortex homogenate (100 μg tissue), 30 min, room temperature. The method, then: Fluorescence competitive binding assay in vitro was performed as reported previously1. Frozen tissues derived from the temporal cortex of an Alzheimer's disease patient was homogenized in 50 mM Tris-HCl buffer, pH 7.4, containing protease inhibitor cocktail (cOmplete™, EDTA-free; Roche), and stored at −80° C. pending analyses. To assay radioligand binding with homologous or heterologous blockade, these homogenates (100 μg tissue) were incubated with 5 nM [11C]PBB3 (molar radioactivity: 100-150 GBq/μmol) in the absence or presence of unlabeled PBB3 at varying concentrations ranging from 10-11-106 M in Tris-HCl buffer containing 10% ethanol, pH 7.4, for 30 min at room temperature. Non-specific binding of [11C]PBB3 was determined in the presence of 5×10^−7 M PBB3. Samples were run once only and specific radioligand binding was determined as pmol/g tissue. Inhibition constant (Ki) and percentage of displacement were determined by using non-linear regression to fit a concentration-binding plot to one-site and two-site binding models derived from the Cheng-Prusoff equation with GraphPad Prism version 6.0 (GraphPad Software), followed by F-test for model selection. In a one-site homologous blockade model, dissociation constant (Kd) was calculated from homologous competitive binding using this function: Kd=Ki=IC50−Radioligand
where IC50 and [Radioligand] stand for the concentration of the competitor inducing 50% inhibition and radioligand concentration, respectively. Experiments with [^11C]PBB3 and unlabeled PBB3 were performed in a dimly lit condition to avoid photoconversion of the compounds. Table B lists Ki values of exemplary test compounds.

The test system of assay [3] is tau aggregates (tangles/threads) in temporal cortex sections of an AD brain. The experiment in a line: Histological examination by fluorescence staining of AD brain sections. The assay is classed as binding, human. The conditions noted are these: 0.001% (W/V) compound in 50% ethanol, 30 min, relative to PBB3; for Fluorescent binding Tangle: score for tangles; for Fluorescent binding Thread: score for threads. The method, then: The fluorescence binding assessment was performed as reported previously^1. For fluorescence labeling with PBB3 and test compounds, deparaffinized temporal cortex sections of an AD brain were incubated in 50% ethanol containing 0.001% (W/V) of PBB3 or test compound at room temperature for 30 min. The samples were rinsed with 50% ethanol for 5 min, dipped into distilled water twice for 3 min, and mounted in non-fluorescent mounting media ([…]; Vector Laboratories). Fluorescence images were captured using a DM4000 microscope (Leica) equipped with a custom filter cube for PBB3 (excitation band-pass at 391-437 nm and suppression low-pass with 458 nm cutoff).

Sequence of [11C]PBB3 binding sites (tau aggregates) in temporal cortex homogenates of an Alzheimer's disease patient (P10636 623-695 limits assumed): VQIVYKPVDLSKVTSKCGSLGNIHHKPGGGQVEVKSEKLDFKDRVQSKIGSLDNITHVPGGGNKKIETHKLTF
Sequence of recombinant tau proteins (human Tau, heparin-fiberized) (P10636 whole entry): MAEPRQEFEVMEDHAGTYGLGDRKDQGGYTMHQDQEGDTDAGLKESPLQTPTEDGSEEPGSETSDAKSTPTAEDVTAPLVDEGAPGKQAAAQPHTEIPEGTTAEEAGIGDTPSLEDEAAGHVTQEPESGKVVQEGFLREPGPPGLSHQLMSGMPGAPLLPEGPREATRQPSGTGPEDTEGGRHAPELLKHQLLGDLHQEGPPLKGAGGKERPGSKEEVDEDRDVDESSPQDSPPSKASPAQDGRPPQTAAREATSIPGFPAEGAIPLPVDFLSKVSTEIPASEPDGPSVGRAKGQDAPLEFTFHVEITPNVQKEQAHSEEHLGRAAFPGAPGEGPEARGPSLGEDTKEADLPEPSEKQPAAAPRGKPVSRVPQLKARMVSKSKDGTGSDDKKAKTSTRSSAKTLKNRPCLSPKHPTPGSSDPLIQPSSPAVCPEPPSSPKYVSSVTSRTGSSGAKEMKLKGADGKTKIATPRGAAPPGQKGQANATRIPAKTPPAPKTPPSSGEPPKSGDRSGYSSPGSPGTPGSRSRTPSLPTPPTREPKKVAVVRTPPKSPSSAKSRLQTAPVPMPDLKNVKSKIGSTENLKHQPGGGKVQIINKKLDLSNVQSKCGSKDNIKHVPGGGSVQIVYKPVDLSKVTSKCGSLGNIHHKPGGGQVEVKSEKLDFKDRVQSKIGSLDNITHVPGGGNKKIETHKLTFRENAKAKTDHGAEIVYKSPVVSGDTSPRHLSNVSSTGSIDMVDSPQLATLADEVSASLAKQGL

`CNc1ccc(-c2ccc(-c3nc4ccc(NCC(O)CF)cc4s3)cc2)cn1` (stereo not drawn) [Compound J, 1-Fluoranyl-3-[[2-[4-[6-(methylamino)pyridin-3-yl]phenyl]-1,3-benzothiazol-6-yl]amino]propan-2-ol]: the pKd in assay [1] was 6.05. The pKi in assay [2] is 8.30. In addition, in assay [3], the “Fluorescent binding Tangle” value was 3/3 and the “Fluorescent binding Thread” value was 3/3.
With `Nc1ccc(-c2ccc(-c3cc4cnccc4[nH]3)cc2)cc1F` [Compound L, 3-Fluoro-4′-(1H-pyrrolo[3,2-c]pyridin-2-yl)biphenyl-4-amine], the pKd in assay [1] is 6.27. In assay [2], this compound gave a pKi of 8.30. Moreover, in assay [3], the “Fluorescent binding Tangle” value was found to be 2.5 and the “Fluorescent binding Thread” value amounted to 1.5.
With `CNc1ccc(-c2ccc(-c3cc4cnccc4[nH]3)cc2)cn1` [Compound M, 5-(4-(1H-Pyrrolo[3,2-c]pyridin-2-yl)phenyl)-N-methylpyridin-2-amine], in assay [1], the negative logarithm of the Kd (pKd) was 5.58. In assay [2], this compound showed a pKi of 7.82. For the same compound, in assay [3], the “Fluorescent binding Tangle” value is reported as 2.5 and the “Fluorescent binding Thread” value was found to be 2.
For the compound `CNc1ccc(-c2ccc(-c3cn4cc(OCC(O)CF)ccc4n3)cc2)cn1` (stereo not drawn) [Compound N, 1-Fluoro-3-(2-(4-(6-(methylamino)pyridin-3-yl)phenyl)imidazo[1,2-a]pyridin-6-yloxy)propan-2-ol], the pKd in assay [1] is 6.59. The same compound showed a pKi in assay [2] of 7.70. Also, in assay [3], the “Fluorescent binding Tangle” value is given as 0.5 and the “Fluorescent binding Thread” value came out at 0.
For `CN(C)c1ccc(-c2ccc(-c3cn4cc(OCC(O)CF)ccc4n3)cc2)cn1` (stereo not drawn) [Compound O, 1-(2-(4-(6-(Dimethylamino)pyridin-3-yl)phenyl)imidazo[1,2-a]pyridin-6-yloxy)-3-fluoropropan-2-ol] the same measures were 6.57, 8.00, 1.5/1.5 and 1.5/1.5.
For `CNc1ccc(-c2ccc(-c3cn4cc(NCC(O)CF)ccc4n3)cc2)cn1` (stereo not drawn) [Compound P, 1-Fluoro-3-(2-(4-(6-(methylamino)pyridin-3-yl)phenyl)imidazo[1,2-a]pyridin-6-ylamino)propan-2-ol] the same measures were 6.43, 7.35, 1 and 0.
On the same counts, the results for `COc1ccc2nc(-c3ccc(-c4ccc(N(C)C)nc4F)cc3)cn2c1` [Compound Q, 6-Fluoranyl-5-[4-(6-methoxyimidazo[1,2-a]pyridin-2-yl)phenyl]-N,N-dimethyl-pyridin-2-amine] are 6.28, 8.30, 1 and 0.5.
With `CNc1ccc(-c2cc(F)c(-c3cc4ccncc4[nH]3)cn2)cn1` [Compound R, 4-Fluoro-N-methyl-5-(1H-pyrrolo[2,3-c]pyridin-2-yl)-2,3′-bipyridin-6′-amine], the pKd in assay [1] is 5.74. Also, the pKi in assay [2] is 7.82. Besides, in assay [3], the “Fluorescent binding Tangle” value is 3/3 and the “Fluorescent binding Thread” value is listed as 3/3.
Regarding `CNc1ccc(-c2ccc(-c3cc4ccncc4[nH]3)nc2F)cn1` [Compound S, 5-[2-Fluoranyl-6-(1H-pyrrolo[2,3-c]pyridin-2-yl)pyridin-3-yl]-N-methyl-pyridin-2-amine], the pKd in assay [1] was 6.03. In assay [2], this compound had a pKi of 7.82. Also, in assay [3], the “Fluorescent binding Tangle” value is 3/3 and the “Fluorescent binding Thread” value was 3/3.
With `CNc1ccc(-c2cnc(-c3cc4ccncc4[nH]3)cc2F)cn1` [Compound T, 5-[4-Fluoranyl-6-(1H-pyrrolo[2,3-c]pyridin-2-yl)pyridin-3-yl]-N-methyl-pyridin-2-amine], the pKd in assay [1] was 5.60. The pKi in assay [2] was 6.85. In assay [3], the “Fluorescent binding Tangle” value is 2.5/2.5 and the “Fluorescent binding Thread” value is reported as 2.5/2.5.
As to `CNc1ccc(-c2ccc(-c3nc4ccc(NCC(O)CF)cc4s3)nc2)cn1` (stereo not drawn) [Compound V, 1-Fluoranyl-3-[[2-[5-[6-(methylamino)pyridin-3-yl]pyridin-2-yl]-1,3-benzothiazol-6-yl]amino]propan-2-ol], the pKd in assay [1] was 5.45. The compound also had a pKi in assay [2] of 8.12. In assay [3], the “Fluorescent binding Tangle” value is 2.5/2.5 and the “Fluorescent binding Thread” value is recorded as 2.5/2.5.
As for `CNc1ncc(-c2cc(F)c(-c3nc4ccc(N)cc4s3)cn2)cn1` [Compound Z, 2-(4-Fluoro-6-(2-(methylamino)pyrimidin-5-yl)pyridin-3-yl)benzo[d]thiazol-6-amine], the pKd in assay [1] is 5.84. For the same compound, in assay [2], the pKi was 8.30. Further, in assay [3], the “Fluorescent binding Tangle” value was 3/3 and the “Fluorescent binding Thread” value is reported as 3/3.
